Earlier results as cited in patent US20220202803A1, “COMBINATION THERAPIES INCLUDING INHIBITORS OF DIHYDROOROTATE DEHYDROGENASE” (Clear Creek Bio, Inc., priority 2019, published 2022).

Legend:
[1] = tested on: mouse model of AML; details: daily administration of high doses
[2] = tested on: solid tumor malignancies; details: administered over a 5-day period followed by a 3-week gap or once per week for three weeks followed by a 1-week gap

In the case of Cc1c(-c2ccc(-c3ccccc3F)cc2)nc2ccc(F)cc2c1C(=O)O [brequinar, 6-fluoro-2-(2′-fluoro-1,1′ biphenyl-4-yl)-3-methyl-4-quinoline carboxylic acid], the adverse effects [1] is listed as “weight loss, anemia, and thrombocytopenia” and the “efficacy in solid tumor malignancies” value [2] is listed as “ineffective”.
